Test results: US6878804B1, “Synthesis of template-fixed β-hairpin loop mimetics” (University of Zurich, priority 1999, dated 2005)
Read-outs that look alike come from different tables or passages of the source. Non-standard residues stand in square brackets, D forms with d. Residues, ends and D or L forms follow the SMILES beside them.

Target: platelet-derived growth factor β-receptor (PDGFR-β) (Homo sapiens, UniProt P09619)
Experiment: Solid-phase assay: displacement of 125I-PDGF-BB from immobilized PDGFR-β
Type: binding
Description: Direct immobilization of platelet-derived growth factor […] is performed by overnight incubation in immunosorbent 96-well plates (Nunc) at 4° C. using 100 ng of purified protein in 100 μl of 15 mM Na2CO3, 35 mM NaHCO3, pH 9.6. The plates are washed once with tris-buffered saline (TBS, 20 mM Tris-HCl, 150 mM NaCl, pH 7.4), and nonspecific adsorption is blocked by at least 1 h of incubation with TBS plus 1% bovine serum albumin (BSA). Following washing with TBS plus 0.1% Tween, 3000 cpm of ^125I-PDGF-BB and increasing amounts of unlabeled PDGF-BB or the peptide derivative of formula I are added to duplicate wells and incubated for 3 h at room temperature in 0.1% Tween, 1 mM CaCl2, 1 mM MgCl2 and 1% BSA. The plates are washed three times with TBS plus 0.1% Tween, and bound ligand is removed with 0.1 M citric acid, pH 2.5, prior to counting in a γ-counter.
Direct immobilization of platelet-derived growth factor β-receptor (PDGFR-β) was performed by overnight incubation in immunosorbent 96-well plates (Nunc) at 4° C. using 100 ng of purified protein in 100 μl of 15 mM Na2CO3, 35 mM NaHCO3, pH 9.6. Plates were washed once with Tris-buffered saline (TBS, 20 mM Tris-HCL, 150 mM Na Cl, pH 7.4), and nonspecific adsorption was blocked by at least 1 h of incubation with TBS plus 1% bovine serum albumin (BSA). Following washing with TBS plus 0.1% Tween, 3000 cpm of ^125I-PDGF-BB and increasing amounts of unlabeled PDGF-BB or the peptides to be tested were added to duplicate wells and incubated for 3 h at room temperature in TBS plus 0.1% Tween, 1 mM CaCl2, 1 mM MgCl2, and 1% BSA. The plates were washed three times with TBS plus 0.1% Tween, and the bound ligand was removed with 0.1 M citric acid, pH 2.5, before counting in a γ-counter.
The cyclic peptides were analyzed and purified by preparative HPLC (dual-pump Pharmacia system with Waters RCM-μBondapak®-C18-cartridges, 10 μm 300 A 25×100 mm for prep. and 8×100 mm for anal., with flow rates of 8 and 2 ml/mim, respectively; UV detection at 226 and 278 nm), then MS, NMR(600 MHz,1 H) and CD. Solid-phase assays were run, as described in 2.4.

[1] = competition with 125I-PDGF-BB, 3 h at room temperature, immobilized purified PDGFR-β, read-out: Assay I50

Chain of platelet-derived growth factor β-receptor (PDGFR-β) (P09619 33-1106, species assumed): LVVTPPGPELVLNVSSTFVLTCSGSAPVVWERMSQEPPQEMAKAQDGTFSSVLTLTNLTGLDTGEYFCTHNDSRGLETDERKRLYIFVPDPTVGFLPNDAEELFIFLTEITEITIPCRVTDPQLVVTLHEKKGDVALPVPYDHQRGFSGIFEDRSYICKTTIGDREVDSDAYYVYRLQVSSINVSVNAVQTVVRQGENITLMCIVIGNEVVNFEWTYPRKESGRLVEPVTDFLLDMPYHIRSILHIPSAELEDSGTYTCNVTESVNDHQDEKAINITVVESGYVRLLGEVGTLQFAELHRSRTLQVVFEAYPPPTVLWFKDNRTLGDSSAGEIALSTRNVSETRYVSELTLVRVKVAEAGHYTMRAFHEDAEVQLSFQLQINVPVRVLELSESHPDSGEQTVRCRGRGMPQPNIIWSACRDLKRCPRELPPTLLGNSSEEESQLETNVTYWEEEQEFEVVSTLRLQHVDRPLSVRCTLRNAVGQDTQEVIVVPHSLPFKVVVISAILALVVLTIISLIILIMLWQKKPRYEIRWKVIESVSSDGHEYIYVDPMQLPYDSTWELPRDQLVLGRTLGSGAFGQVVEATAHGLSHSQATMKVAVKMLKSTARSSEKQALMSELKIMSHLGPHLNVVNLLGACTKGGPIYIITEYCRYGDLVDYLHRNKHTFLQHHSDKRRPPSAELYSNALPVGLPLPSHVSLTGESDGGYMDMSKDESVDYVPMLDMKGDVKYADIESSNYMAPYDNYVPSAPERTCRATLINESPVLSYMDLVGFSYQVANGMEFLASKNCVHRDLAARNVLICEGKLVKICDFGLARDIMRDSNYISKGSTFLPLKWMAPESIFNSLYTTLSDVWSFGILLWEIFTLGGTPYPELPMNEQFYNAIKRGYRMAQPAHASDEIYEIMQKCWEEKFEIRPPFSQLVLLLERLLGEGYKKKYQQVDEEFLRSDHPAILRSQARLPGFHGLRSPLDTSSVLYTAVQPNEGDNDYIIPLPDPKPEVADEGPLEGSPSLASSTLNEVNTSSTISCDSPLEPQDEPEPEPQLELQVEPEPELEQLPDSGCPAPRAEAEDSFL

| IC50 [1] | Compound | IC50 |
| --- | --- | --- |
| 1500 µM | CC[C@H](C)[C@@H]1NC(=O)[C@H](Cc2c[nH]c3ccccc23)NC(=O)[C@H](CCCCN)NC(=O)[C@H](CCCCN)NC(=O)[C@H](CCCNC(=N)N)NC(=O)[C@H](C(C)C)NC(=O)[C@H](Cc2c[nH]c3ccccc23)NC(=O)[C@H](CCC(=O)O)NC(=O)[C@@H]2CCCN2C(=O)[C@H]2CCCN2C1=O [Example 3] (cyclo(PEWVRKKWI[dP])) | – |
| 1500 µM | CC[C@H](C)[C@@H]1NC(=O)[C@H](Cc2ccc(O)cc2)NC(=O)[C@@H]2CCCN2C(=O)[C@H]2CCCN2C(=O)[C@H](Cc2ccc(O)cc2)NC(=O)[C@@H]2CCCN2C(=O)[C@H](CCCCN)NC(=O)[C@H](CCCCN)NC(=O)[C@H](CCCNC(=N)N)NC(=O)[C@H](C(C)C)NC1=O [Example 7] (cyclo(PYIVRKKPY[dP])) | – |
| 260 µM | CC[C@H](C)[C@@H]1NC(=O)[C@H](Cc2c[nH]c3ccccc23)NC(=O)[C@@H]2CCCN2C(=O)[C@H]2CCCN2C(=O)[C@H](Cc2c[nH]c3ccccc23)NC(=O)[C@@H]2CCCN2C(=O)[C@H](CCCCN)NC(=O)[C@H](CCCCN)NC(=O)[C@H](CCCNC(=N)N)NC(=O)[C@H](C(C)C)NC1=O [Example 13] (cyclo(PWIVRKKPW[dP])) | – |
| 800 µM | CC(C)[C@@H]1NC(=O)[C@H](C)NC(=O)[C@H](Cc2c[nH]c3ccccc23)NC(=O)[C@@H]2CCCN2C(=O)[C@H]2CCCN2C(=O)[C@H](Cc2c[nH]c3ccccc23)NC(=O)[C@H](C)NC(=O)[C@H](CCCCN)NC(=O)[C@H](CCCCN)NC(=O)[C@H](CCCNC(=N)N)NC1=O [Example 16] (cyclo(PWAVRKKAW[dP])) | – |
| 800 µM | CC(C)[C@@H]1NC(=O)[C@H](CO)NC(=O)[C@H](Cc2c[nH]c3ccccc23)NC(=O)[C@@H]2CCCN2C(=O)[C@H]2CCCN2C(=O)[C@H](Cc2c[nH]c3ccccc23)NC(=O)[C@H](CO)NC(=O)[C@H](CCCCN)NC(=O)[C@H](CCCCN)NC(=O)[C@H](CCCNC(=N)N)NC1=O [Example 17] (cyclo(PWSVRKKSW[dP])) | – |
| 500 µM | CC(C)[C@@H]1NC(=O)[C@H](CCCCN)NC(=O)[C@H](Cc2c[nH]c3ccccc23)NC(=O)[C@@H]2CCCN2C(=O)[C@H]2CCCN2C(=O)[C@H](Cc2c[nH]c3ccccc23)NC(=O)[C@H](CCCCN)NC(=O)[C@H](CCCCN)NC(=O)[C@H](CCCCN)NC(=O)[C@H](CCCNC(=N)N)NC1=O [Example 18] (cyclo(PWKVRKKKW[dP])) | – |
| 2000 µM | CC(C)[C@@H]1NC(=O)[C@H](Cc2c[nH]c3ccccc23)NC(=O)[C@H](C)NC(=O)[C@@H]2CCCN2C(=O)[C@H]2CCCN2C(=O)[C@H](C)NC(=O)[C@H](Cc2c[nH]c3ccccc23)NC(=O)[C@H](CCCCN)NC(=O)[C@H](CCCCN)NC(=O)[C@H](CCCNC(=N)N)NC1=O [Example 21] (cyclo(PAWVRKKWA[dP])) | – |

Further lines, the compound ahead of its results:

| Compound | IC50 [1] | IC50 |
| --- | --- | --- |
| CC[C@H](C)[C@@H]1NC(=O)[C@H](CCC(=O)O)NC(=O)[C@@H]2CCCN2C(=O)[C@H]2CCCN2C(=O)[C@H]([C@@H](C)CC)NC(=O)[C@@H]2CCCN2C(=O)[C@H](CCCCN)NC(=O)[C@H](CCCCN)NC(=O)[C@H](CCCNC(=N)N)NC(=O)[C@H](C(C)C)NC1=O [Example 1] (cyclo(PEIVRKKPI[dP])) | 2200 µM | – |
| CC[C@H](C)[C@@H]1NC(=O)[C@H](Cc2ccc(O)cc2)NC(=O)[C@H](CCCCN)NC(=O)[C@H](CCCCN)NC(=O)[C@H](CCCNC(=N)N)NC(=O)[C@H](C(C)C)NC(=O)[C@H](Cc2ccc(O)cc2)NC(=O)[C@H](CCC(=O)O)NC(=O)[C@@H]2CCCN2C(=O)[C@H]2CCCN2C1=O [Example 2] (cyclo(PEYVRKKYI[dP])) | 2000 µM | – |
| CC(C)[C@@H]1NC(=O)[C@H](Cc2ccc(O)cc2)NC(=O)[C@H](Cc2ccc(O)cc2)NC(=O)[C@@H]2CCCN2C(=O)[C@H]2CCCN2C(=O)[C@H](Cc2ccc(O)cc2)NC(=O)[C@H](Cc2ccc(O)cc2)NC(=O)[C@H](CCCCN)NC(=O)[C@H](CCCCN)NC(=O)[C@H](CCCNC(=N)N)NC1=O [Example 8] (cyclo(PYYVRKKYY[dP])) | 800 µM | – |
| CC(C)[C@@H]1NC(=O)[C@H](Cc2c[nH]c3ccccc23)NC(=O)[C@H](Cc2ccc(O)cc2)NC(=O)[C@@H]2CCCN2C(=O)[C@H]2CCCN2C(=O)[C@H](Cc2ccc(O)cc2)NC(=O)[C@H](Cc2c[nH]c3ccccc23)NC(=O)[C@H](CCCCN)NC(=O)[C@H](CCCCN)NC(=O)[C@H](CCCNC(=N)N)NC1=O [Example 9] (cyclo(YWVRKKWY[dP]P)) | – | 500 µM |
| CC(C)[C@@H]1NC(=O)[C@H](C)NC(=O)[C@H](Cc2ccc(O)cc2)NC(=O)[C@@H]2CCCN2C(=O)[C@H]2CCCN2C(=O)[C@H](Cc2ccc(O)cc2)NC(=O)[C@H](C)NC(=O)[C@H](CCCCN)NC(=O)[C@H](CCCCN)NC(=O)[C@H](CCCNC(=N)N)NC1=O [Example 10] (cyclo(PYAVRKKAY[dP])) | 2000 µM | – |
| CC(C)[C@@H]1NC(=O)[C@H](CO)NC(=O)[C@H](Cc2ccc(O)cc2)NC(=O)[C@@H]2CCCN2C(=O)[C@H]2CCCN2C(=O)[C@H](Cc2ccc(O)cc2)NC(=O)[C@H](CO)NC(=O)[C@H](CCCCN)NC(=O)[C@H](CCCCN)NC(=O)[C@H](CCCNC(=N)N)NC1=O [Example 11] (cyclo(PYSVRKKSY[dP])) | 2000 µM | – |
| CC(C)[C@@H]1NC(=O)[C@H](CCCCN)NC(=O)[C@H](Cc2ccc(O)cc2)NC(=O)[C@@H]2CCCN2C(=O)[C@H]2CCCN2C(=O)[C@H](Cc2ccc(O)cc2)NC(=O)[C@H](CCCCN)NC(=O)[C@H](CCCCN)NC(=O)[C@H](CCCCN)NC(=O)[C@H](CCCNC(=N)N)NC1=O [Example 12] (cyclo(PYKVRKKKY[dP])) | 1500 µM | – |
| CC(C)[C@@H]1NC(=O)[C@H](Cc2ccc(O)cc2)NC(=O)[C@H](Cc2c[nH]c3ccccc23)NC(=O)[C@@H]2CCCN2C(=O)[C@H]2CCCN2C(=O)[C@H](Cc2c[nH]c3ccccc23)NC(=O)[C@H](Cc2ccc(O)cc2)NC(=O)[C@H](CCCCN)NC(=O)[C@H](CCCCN)NC(=O)[C@H](CCCNC(=N)N)NC1=O [Example 14] (cyclo(PWYVRKKYW[dP])) | 170 µM | – |
| CC(C)[C@@H]1NC(=O)[C@H](Cc2ccc(O)cc2)NC(=O)[C@H](C)NC(=O)[C@@H]2CCCN2C(=O)[C@H]2CCCN2C(=O)[C@H](C)NC(=O)[C@H](Cc2ccc(O)cc2)NC(=O)[C@H](CCCCN)NC(=O)[C@H](CCCCN)NC(=O)[C@H](CCCNC(=N)N)NC1=O [Example 20] (cyclo(PAYVRKKYA[dP])) | 2000 µM | – |
